Tested on: genes listed in Table 6 (CR marker panel), white adipose tissue
Experiment: Testing ingredients for mimicry of caloric restriction: feeding study, RT-qPCR of the Table 6 gene panel in white adipose tissue, fold change as percentage of the fold change in the CR group
Assay type: in vivo, C57BL/6J mice
Parameters: key to Avg. CRMI: points per gene: 11-20% mimicry = 1, 21-30% = 2...; opposite effect negative
Details: for Avg. CRMI: CR Mimetic Index, points per gene from mimicry score plus five points for significance; for Avg. mimicry: average over significantly changed genes; for CMII: mimetic index = average mimicry (fraction of CR) x number of significantly changed genes
Text: C57BL/6J mice were purchased from Jackson Laboratories at 6 weeks of age and maintained as described previously in Barger J L, et al. (2008) A Low Dose of Dietary Resveratrol Partially Mimics Caloric Restriction and Retards Aging Parameters in Mice. PLoS ONE 3(6): e2264 (http://dx.doi.org/10.1371/journal.pone.0002264). Briefly, mice were individually housed in shoebox cages and provided with 24 grams (˜84 kcal) of AIN-93M diet per week (7 grams on Monday and Wednesday and 10 grams on Friday). Starting at 8 weeks of age and continuing until 22 weeks of age, mice were either a) maintained on the AIN-93M diet (control group), b) fed a Calorie Restricted (CR) diet providing 63 kcal/week of a modified AIN93M from 8-16 weeks of age and then further reduced to a diet providing 49 kcal/week of a modified AIN93M from 16-22 weeks of age; or c) were assigned to an AIN93M diet supplemented with one of the following test ingredients: 1) bezafibrate at a dose of 5,000 mg/kg diet; 2) metformin at a dose of 1,909 mg/kg diet; 3) L-carnitine at a dose of 1,800 mg/kg diet; 4) blood orange extract at a dose of 18 mg/kg of body weight; 5) purple corn extract at a dose of 22 mg/kg of body weight; 6) resveratrol at a dose of 30 mg/kg of body weight; and 7) quercetin at a dose of 17.6 mg/kg of body weight. At 22 weeks of age, tissues were collected from the mice, flash-frozen in liquid nitrogen and stored at −80° C. for later analysis.
In order to screen the ingredients for their ability to mimic CR, quantitative real-time PCR (RT-qPCR) analysis was performed on RNA isolated from white adipose tissue from all groups of mice. Experimental methods and data analysis for RT-qPCR experiments have been published previously in Barger, J L et al., (2008) Short-term consumption of a resveratrol-containing nutraceutical mixture mimics gene expression of long-term caloric restriction in mouse heart, Exp. Gerontology 43(9):859 (http://dx.doi.org/10.1016/j.exger.2008.06.013). Briefly, the magnitude of change in gene expression was determined for each of the genes listed in Table 6 for the CR and treatment groups compared to the control animals. Two-tailed t-tests (assuming equal variance) were used to determine if the change in expression for individual genes was statistically significant. The magnitude of the change in expression (“fold change”) values were log2-adjusted to fit normality assumptions for statistical analyses.
CR mimicry was expressed as the fold change observed in each gene for the test group as a percentage of the fold change observed for that gene in the CR group.
The ingredients tested were based on their mimetic effect across the gene panel.
Another ranking approach was used to reflect effects across all genes. A CR Mimetic Index (CRMI) was calculated per gene for each ingredient by assigning each a number of points based on its mimicry score for each gene. Positive points were given for positive mimicry values (11 to 20%=1 point, 21 to 30%=2 points, 31 to 40%=3 points, and so on). Negative mimicry values (i.e. where the gene expression effect was opposite that observed for CR) received corresponding negative scores (i.e. −11 to −20%=−1 point, −21 to −30%=−2 points, −31 to −40%=[…], and so on). Five points were added for statistical significance of a mimicry value.
In the experimental protocol of Example 2, bezafibrate at 5,000 mg/kg diet was also compared to lower doses (100 and 500 mg/kg).
Mimetic indices were calculated for the 500 mg/kg and 100 mg/kg doses as in Example 2.

[1] = 100 mg/kg diet, white adipose tissue
[2] = 500 mg/kg diet, white adipose tissue
[3] = 5000 mg/kg diet, white adipose tissue
[4] = fold change as percentage of CR fold change, white adipose tissue
[5] = white adipose tissue, RT-qPCR, C57BL/6J mice fed from 8 to 22 weeks of age, ingredient doses, only significantly changed genes shown
[6] = white adipose tissue, Table 6 gene panel, diet supplemented from 8 to 22 weeks of age, doses (bezafibrate 5,000 mg/kg diet)

CC(C)(Oc1ccc(CCNC(=O)c2ccc(Cl)cc2)cc1)C(=O)O [Bezafibrate, bezafibrate]
CR mimicry Acaca [1]: 20% | CR mimicry Cd68 [1]: 58% | CR mimicry Gpd2 [1]: 23% | CR mimicry Ifi27I2a [1]: 39% | CR mimicry Acaca [2]: 23% | CR mimicry Acss2 [2]: 17% | CR mimicry Gpd2 [2]: 31% | CR mimicry Me1 [2]: 18% | CR mimicry Nampt [2]: 87% | CR mimicry Parm1 [2]: 19% | CR mimicry Slc2a4 [2]: 69% | CR mimicry Acaca [3]: 59% | CR mimicry Acss2 [3]: 21% | CR mimicry Cd68 [3]: 58% | CR mimicry Gpd2 [3]: 93% | CR mimicry Ifi27I2a [3]: 75% | CR mimicry Me1 [3]: 24% | CR mimicry Nampt [3]: 233% | CR mimicry Ndufs4 [3]: 108% | CR mimicry Parm1 [3]: 47% | CR mimicry Slc2a4 [3]: 113% | Avg. CRMI: 128 | Avg. mimicry [4]: 83% | Avg. CRMI (CR Mimetic Index, points per gene) (bezafibrate 100 mg/kg diet): 28 | CMII (average mimicry as fraction of CR x number of significantly changed genes) (bezafibrate 100 mg/kg diet): 1.4 | Avg. mimicry (bezafibrate 100 mg/kg diet): 35% | No. of genes significantly changed (bezafibrate 100 mg/kg diet, white adipose tissue gene panel): 4 | Avg. CRMI (CR Mimetic Index, points per gene) (bezafibrate 500 mg/kg diet): 68 | CMII (average mimicry as fraction of CR x number of significantly changed genes) (bezafibrate 500 mg/kg diet): 2.6 | Avg. mimicry (bezafibrate 500 mg/kg diet): 38% | No. of genes significantly changed (bezafibrate 500 mg/kg diet, white adipose tissue gene panel): 7 | Avg. CRMI (CR Mimetic Index, points per gene) (bezafibrate 5000 mg/kg diet): 128 | CMII (average mimicry as fraction of CR x number of significantly changed genes) (bezafibrate 5000 mg/kg diet): 8.3 | Avg. mimicry (bezafibrate 5000 mg/kg diet): 83% | No. of genes significantly changed (bezafibrate 5000 mg/kg diet, white adipose tissue gene panel): 10 | CMII: 8.3 | CR mimicry, Acaca (fold change as percentage of the fold change in the CR group) [5]: 59% | CR mimicry, Acss2 (fold change as percentage of the fold change in the CR group) [5]: 21% | CR mimicry, Cd68 (fold change as percentage of the fold change in the CR group) [5]: 58% | CR mimicry, Gpd2 (fold change as percentage of the fold change in the CR group) [5]: 93% | CR mimicry, Ifi27I2a (fold change as percentage of the fold change in the CR group) [5]: 75% | CR mimicry, Me1 (fold change as percentage of the fold change in the CR group) [5]: 24% | CR mimicry, Nampt (fold change as percentage of the fold change in the CR group) [5]: 233% | CR mimicry, Ndufs4 (fold change as percentage of the fold change in the CR group) [5]: 108% | CR mimicry, Parm1 (fold change as percentage of the fold change in the CR group) [5]: 47% | CR mimicry, Slc2a4 (fold change as percentage of the fold change in the CR group) [5]: 113% | No. of genes significantly changed [6]: 10

C[N+](C)(C)C[C@H](O)CC(=O)[O-] [L-carnitine]
Avg. CRMI: 55 | Avg. mimicry [4]: 31% | CMII: 2.2 | CR mimicry, Acaca (fold change as percentage of the fold change in the CR group) [5]: 5% | CR mimicry, Gpd2 (fold change as percentage of the fold change in the CR group) [5]: 15% | CR mimicry, Nampt (fold change as percentage of the fold change in the CR group) [5]: 84% | CR mimicry, Ndufs4 (fold change as percentage of the fold change in the CR group) [5]: 40% | CR mimicry, Parm1 (fold change as percentage of the fold change in the CR group) [5]: 3% | CR mimicry, Serpine1 (fold change as percentage of the fold change in the CR group) [5]: 52% | CR mimicry, Slc2a4 (fold change as percentage of the fold change in the CR group) [5]: 16% | No. of genes significantly changed [6]: 7

CN(C)C(=N)N=C(N)N [Metformin, metformin]
Avg. CRMI: 31 | Avg. mimicry [4]: 16% | CMII: 0.6 | CR mimicry, Acaca (fold change as percentage of the fold change in the CR group) [5]: 17% | CR mimicry, Gpd2 (fold change as percentage of the fold change in the CR group) [5]: 27% | CR mimicry, Me1 (fold change as percentage of the fold change in the CR group) [5]: 11% | CR mimicry, Parm1 (fold change as percentage of the fold change in the CR group) [5]: 10% | No. of genes significantly changed [6]: 4

O=c1c(O)c(-c2ccc(O)c(O)c2)oc2cc(O)cc(O)c12 [Quercetin, quercetin]
Avg. CRMI: 17 | Avg. mimicry [4]: 20% | CMII: 0.4 | ranking of CR mimicry among tested ingredients (ranking by mimetic index (CMII), Table 8): lowest degree of CR mimicry | CR mimicry, Gpd2 (fold change as percentage of the fold change in the CR group) [5]: 5% | CR mimicry, Slc2a4 (fold change as percentage of the fold change in the CR group) [5]: 35% | No. of genes significantly changed [6]: 2

Oc1ccc(C=Cc2cc(O)cc(O)c2)cc1 [Resveratrol, resveratrol]
Avg. CRMI: 35 | Avg. mimicry [4]: 34% | CMII: 1.38 | CR mimicry, Acaca (fold change as percentage of the fold change in the CR group) [5]: 8% | CR mimicry, Gpd2 (fold change as percentage of the fold change in the CR group) [5]: 10% | CR mimicry, Nampt (fold change as percentage of the fold change in the CR group) [5]: 65% | CR mimicry, Serpine1 (fold change as percentage of the fold change in the CR group) [5]: 55% | No. of genes significantly changed [6]: 4

Source: patent US20160208330A1, “IDENTIFYING MARKERS OF CALORIC RESTRICTION AND CALORIC RESTRICTION MIMETICS” (NSE Products, Inc., priority 2011, published 2016)
